In paper PMC5218480 (PLoS ONE, 2017):

Tested on: MV-4-11 cells
Assay: Gene expression microarray analysis (Affymetrix PrimeView) and GSEA
Type: cell-based, human
Parameters: RFU PODN (11730768_x_at) / Fold change /veh PODN (11730768_x_at) / RFU LINC00158 (11744669_a_at) / Fold change /veh LINC00158 (11744669_a_at) / RFU DUSP10 (11751237_a_at) / Fold change /veh DUSP10 (11751237_a_at) / RFU ID3 (11757404_x_at) / Fold change /veh ID3 (11757404_x_at) / RFU PLEKHG5 (11737974_s_at) / Fold change /veh PLEKHG5 (11737974_s_at) / RFU LRRC4B (11730491_at) / Fold change /veh LRRC4B (11730491_at) / RFU GIMAP4 (11747438_a_at) / Fold change /veh GIMAP4 (11747438_a_at) / RFU KRT8 (11758183_x_at) / Fold change /veh KRT8 (11758183_x_at) / RFU CNN1 (11734310_a_at) / Fold change /veh CNN1 (11734310_a_at) / RFU VPS37D (11726825_at) / Fold change /veh VPS37D (11726825_at) / RFU C10orf10 (11716522_x_at) / Fold change /veh C10orf10 (11716522_x_at) / RFU KIR2DL2 /// KIR2DL4 /// KIR2DL5A /// KIR2DL5B /// KIR2DS1 /// KIR2DS2 /// KIR2DS3 /// KIR2DS4 /// KIR3DL3 /// KIR3DL3 /// KIR3DS1 (11738374_at) / Fold change /veh KIR2DL2 /// KIR2DL4 /// KIR2DL5A /// KIR2DL5B /// KIR2DS1 /// KIR2DS2 /// KIR2DS3 /// KIR2DS4 /// KIR3DL3 /// KIR3DL3 /// KIR3DS1 (11738374_at) / RFU C1QL1 (11718748_at) / Fold change /veh C1QL1 (11718748_at) / RFU TMPRSS4 (11747572_a_at) / Fold change /veh TMPRSS4 (11747572_a_at) / RFU HAMP (11756126_x_at) / Fold change /veh HAMP (11756126_x_at) / RFU RNFT2 (11725882_a_at) / Fold change /veh RNFT2 (11725882_a_at) / RFU NR4A2 (11747474_a_at) / Fold change /veh NR4A2 (11747474_a_at) / RFU ABCC12 (11746883_a_at) / Fold change /veh ABCC12 (11746883_a_at) / RFU TMEM136 (11760407_x_at) / Fold change /veh TMEM136 (11760407_x_at) / RFU CLDN22 /// WWC2 (11732394_at) / Fold change /veh CLDN22 /// WWC2 (11732394_at) / RFU HLA-DPB1 (11760878_x_at) / Fold change /veh HLA-DPB1 (11760878_x_at) / RFU SPINT1 (11716480_a_at) / Fold change /veh SPINT1 (11716480_a_at) / RFU GAP43 (11754022_s_at) / Fold change /veh GAP43 (11754022_s_at) / RFU A4GNT (11735810_at) / Fold change /veh A4GNT (11735810_at) / RFU PRB3 (11715151_x_at) / Fold change /veh PRB3 (11715151_x_at) / RFU TUBB4B (11761932_at) / Fold change /veh TUBB4B (11761932_at) / RFU CAPN14 (11732068_a_at) / Fold change /veh CAPN14 (11732068_a_at) / RFU TMCC2 (11721928_a_at) / Fold change /veh TMCC2 (11721928_a_at) / RFU IRGQ (11745062_a_at) / Fold change /veh IRGQ (11745062_a_at) / RFU FAM174B (11720279_a_at) / Fold change /veh FAM174B (11720279_a_at) / RFU TMPRSS4 (11748680_a_at) / Fold change /veh TMPRSS4 (11748680_a_at) / RFU FAM212B (11763350_a_at) / Fold change /veh FAM212B (11763350_a_at) / RFU PLEKHG5 (11743358_a_at) / Fold change /veh PLEKHG5 (11743358_a_at) / RFU ZSCAN30 (11745921_a_at) / Fold change /veh ZSCAN30 (11745921_a_at) / RFU CMKLR1 (11741424_a_at) / Fold change /veh CMKLR1 (11741424_a_at) / RFU LOC101060620 /// MAPK8IP1 (11723275_at) / Fold change /veh LOC101060620 /// MAPK8IP1 (11723275_at) / RFU SPTSSB (11747773_x_at) / Fold change /veh SPTSSB (11747773_x_at) / RFU PRSS12 (11739890_at) / Fold change /veh PRSS12 (11739890_at) / RFU BIN1 (11741810_x_at) / Fold change /veh BIN1 (11741810_x_at) / RFU WNT11 (11732464_a_at) / Fold change /veh WNT11 (11732464_a_at) / RFU C10orf10 (11716521_a_at) / Fold change /veh C10orf10 (11716521_a_at) / RFU C5orf56 (11738089_at) / Fold change /veh C5orf56 (11738089_at) / RFU CYB561 (11721691_x_at) / Fold change /veh CYB561 (11721691_x_at) / RFU ANKRD19P (11752326_a_at) / Fold change /veh ANKRD19P (11752326_a_at) / RFU OR2T12 /// OR2T33 /// OR2T8 (11738714_s_at) / Fold change /veh OR2T12 /// OR2T33 /// OR2T8 (11738714_s_at) / RFU VCAN (11748164_a_at) / Fold change /veh VCAN (11748164_a_at) / RFU JSRP1 (11732532_at) / Fold change /veh JSRP1 (11732532_at) / RFU KRTAP10-11 (11738290_x_at) / Fold change /veh KRTAP10-11 (11738290_x_at) / RFU MYO3A (11730013_a_at) / Fold change /veh MYO3A (11730013_a_at) / RFU EBF3 (11725865_a_at) / Fold change /veh EBF3 (11725865_a_at) / RFU CAMK2N1 (11719241_x_at) / Fold change /veh CAMK2N1 (11719241_x_at) / RFU C5orf56 (11738088_a_at) / Fold change /veh C5orf56 (11738088_a_at) / RFU OLFML3 (11715873_a_at) / Fold change /veh OLFML3 (11715873_a_at) / RFU LOC100653217 /// NTM (11731650_a_at) / Fold change /veh LOC100653217 /// NTM (11731650_a_at) / RFU MAPK11 (11762145_a_at) / Fold change /veh MAPK11 (11762145_a_at) / RFU FIZ1 (11724087_x_at) / Fold change /veh FIZ1 (11724087_x_at) / RFU OASL (11726364_x_at) / Fold change /veh OASL (11726364_x_at) / RFU SOX15 (11748057_x_at) / Fold change /veh SOX15 (11748057_x_at) / RFU CD79A (11719716_a_at) / Fold change /veh CD79A (11719716_a_at) / RFU HIST1H1D (11736915_at) / Fold change /veh HIST1H1D (11736915_at) / RFU CASKIN2 (11723855_a_at) / Fold change /veh CASKIN2 (11723855_a_at) / RFU LOC730098 (11760151_x_at) / Fold change /veh LOC730098 (11760151_x_at) / RFU OR4N2 (11742367_at) / Fold change /veh OR4N2 (11742367_at) / RFU PRRT2 (11749266_a_at) / Fold change /veh PRRT2 (11749266_a_at) / RFU SNX32 (11753110_a_at) / Fold change /veh SNX32 (11753110_a_at) / RFU CDHR5 (11726645_a_at) / Fold change /veh CDHR5 (11726645_a_at) / RFU RCAN1 (11760418_a_at) / Fold change /veh RCAN1 (11760418_a_at) / RFU FAM167A (11723789_a_at) / Fold change /veh FAM167A (11723789_a_at) / RFU FAM26E (11764081_at) / Fold change /veh FAM26E (11764081_at) / RFU ISYNA1 (11749810_s_at) / Fold change /veh ISYNA1 (11749810_s_at) / RFU ACY1 (11761880_at) / Fold change /veh ACY1 (11761880_at) / RFU 11764098_at / Fold change /veh 11764098_at / RFU SAMD14 (11745864_x_at) / Fold change /veh SAMD14 (11745864_x_at) / RFU NPB (11741838_a_at) / Fold change /veh NPB (11741838_a_at) / RFU TMPRSS6 (11731388_a_at) / Fold change /veh TMPRSS6 (11731388_a_at) / RFU KRTAP10-2 (11738614_at) / Fold change /veh KRTAP10-2 (11738614_at) / RFU ARHGAP8 /// PRR5-ARHGAP8 (11727945_x_at) / Fold change /veh ARHGAP8 /// PRR5-ARHGAP8 (11727945_x_at) / RFU KRTAP5-7 /// NADSYN1 (11734609_at) / Fold change /veh KRTAP5-7 /// NADSYN1 (11734609_at) / RFU RASL12 (11751679_a_at) / Fold change /veh RASL12 (11751679_a_at) / RFU CDKN2B (11736163_a_at) / Fold change /veh CDKN2B (11736163_a_at) / RFU PRF1 (11729649_at) / Fold change /veh PRF1 (11729649_at) / RFU, ZNF638 /// ZNF638-IT1 / Fold change vs veh, ZNF638 /// ZNF638-IT1 / RFU, PANK3 / Fold change vs veh, PANK3 / RFU, SH3YL1 / Fold change vs veh, SH3YL1 / RFU, ZEB2 / Fold change vs veh, ZEB2 / RFU, NRIP1 / Fold change vs veh, NRIP1 / RFU, PTTG1IP / Fold change vs veh, PTTG1IP / RFU, CAPN2 / Fold change vs veh, CAPN2 / RFU, MED14 / Fold change vs veh, MED14 / RFU, SNORA58 / Fold change vs veh, SNORA58 / RFU, C1orf63 / Fold change vs veh, C1orf63 / RFU, LRRFIP1 / Fold change vs veh, LRRFIP1 / RFU, NDUFAF7 / Fold change vs veh, NDUFAF7 / RFU, SLC12A2 / Fold change vs veh, SLC12A2 / RFU, IBTK / Fold change vs veh, IBTK / RFU, ESF1 / Fold change vs veh, ESF1 / Fold change vs veh, TMEM50B / RFU, TAOK1 / Fold change vs veh, TAOK1 / RFU, ACBD3 / Fold change vs veh, ACBD3 / RFU, TMA16 / Fold change vs veh, TMA16 / RFU, RWDD3 / Fold change vs veh, RWDD3 / RFU, BCAT1 / Fold change vs veh, BCAT1 / RFU, EDEM3 / Fold change vs veh, EDEM3 / RFU, TMEM33 / Fold change vs veh, TMEM33 / RFU, WDR75 / Fold change vs veh, WDR75 / RFU, AHCTF1 / Fold change vs veh, AHCTF1 / RFU, TFRC / Fold change vs veh, TFRC / RFU, ZDHHC17 / Fold change vs veh, ZDHHC17 / RFU, NOM1 / Fold change vs veh, NOM1 / RFU, ARL8B / Fold change vs veh, ARL8B / RFU, ZBTB11 / Fold change vs veh, ZBTB11 / RFU, TAMM41 / Fold change vs veh, TAMM41 / RFU, KIAA1704 /// LOC100996395 / Fold change vs veh, KIAA1704 /// LOC100996395 / RFU, ING1 / Fold change vs veh, ING1 / RFU, TRMT61B / Fold change vs veh, TRMT61B / RFU, FUBP3 / Fold change vs veh, FUBP3 / RFU, TP53 / Fold change vs veh, TP53 / RFU, TNKS2 / Fold change vs veh, TNKS2 / RFU, ZFP14 / Fold change vs veh, ZFP14 / RFU, ACTR2 / Fold change vs veh, ACTR2 / RFU, PPP3R1 / Fold change vs veh, PPP3R1 / RFU, PIK3R1 / Fold change vs veh, PIK3R1 / RFU, HNRNPA1 / Fold change vs veh, HNRNPA1 / RFU, RNF170 / Fold change vs veh, RNF170 / RFU, ZNF28 / Fold change vs veh, ZNF28 / RFU, RNGTT / Fold change vs veh, RNGTT / RFU, OGT / Fold change vs veh, OGT / RFU, BRD1 / Fold change vs veh, BRD1 / RFU, MARS / Fold change vs veh, MARS / RFU, ZNF655 / Fold change vs veh, ZNF655 / RFU, FAHD1 / Fold change vs veh, FAHD1 / RFU, BDP1 / Fold change vs veh, BDP1 / RFU, LRRCC1 / Fold change vs veh, LRRCC1 / RFU, ARID1A / Fold change vs veh, ARID1A / RFU, ZNF146 / Fold change vs veh, ZNF146 / RFU, ZNF330 / Fold change vs veh, ZNF330 / RFU, GPN3 / Fold change vs veh, GPN3 / RFU, C9orf123 / Fold change vs veh, C9orf123 / RFU, N4BP2L2 / Fold change vs veh, N4BP2L2 / RFU, ARFIP1 / Fold change vs veh, ARFIP1 / RFU, FAM179B / Fold change vs veh, FAM179B / RFU, BCL10 / Fold change vs veh, BCL10 / RFU, UHRF1BP1L / Fold change vs veh, UHRF1BP1L / RFU, BET1 / Fold change vs veh, BET1 / RFU, CNOT2 / Fold change vs veh, CNOT2 / RFU, ZNF268 / Fold change vs veh, ZNF268 / Fold change vs veh, ZNF507 / RFU, DGCR2 / Fold change vs veh, DGCR2 / RFU, WDSUB1 / Fold change vs veh, WDSUB1 / Fold change vs veh, HSP90B1 /// MIR3652 / RFU, ADSS / Fold change vs veh, ADSS / RFU, GK / Fold change vs veh, GK / RFU, ZNF148 / Fold change vs veh, ZNF148 / RFU, TAF9 / Fold change vs veh, TAF9 / RFU, SLC1A5 / Fold change vs veh, SLC1A5 / RFU, SLMO2 / Fold change vs veh, SLMO2 / RFU, ABCC4 / Fold change vs veh, ABCC4 / RFU, LOC101060439 /// RAP1B / Fold change vs veh, LOC101060439 /// RAP1B / RFU, RFX7 / Fold change vs veh, RFX7 / RFU, GTPBP10 / Fold change vs veh, GTPBP10 / RFU, CNEP1R1 / Fold change vs veh, CNEP1R1 / RFU, BIVM-ERCC5 /// ERCC5 / Fold change vs veh, BIVM-ERCC5 /// ERCC5 / RFU, ILF3 / Fold change vs veh, ILF3 / RFU 11762660_at / Fold change /veh 11762660_at / RFU VCAN (11757783_s_at) / Fold change /veh VCAN (11757783_s_at) / RFU DDX43 (11728927_at) / Fold change /veh DDX43 (11728927_at) / RFU KRT8 (11758188_x_at) / Fold change /veh KRT8 (11758188_x_at) / RFU NKD1 (11759106_at) / Fold change /veh NKD1 (11759106_at) / RFU SRD5A1 (11742802_a_at) / Fold change /veh SRD5A1 (11742802_a_at) / RFU TPSAB1 /// TPSB2 (11721975_s_at) / Fold change /veh TPSAB1 /// TPSB2 (11721975_s_at) / RFU GSTM3 (11746129_a_at) / Fold change /veh GSTM3 (11746129_a_at) / RFU IL23R (11737362_x_at) / Fold change /veh IL23R (11737362_x_at) / RFU TMEM51 (11727254_a_at) / Fold change /veh TMEM51 (11727254_a_at) / RFU PIWIL2 (11732686_x_at) / Fold change /veh PIWIL2 (11732686_x_at) / RFU ORM1 (11744905_x_at) / Fold change /veh ORM1 (11744905_x_at) / RFU CCDC152 (11743942_at) / Fold change /veh CCDC152 (11743942_at) / RFU ECM1 (11717891_a_at) / Fold change /veh ECM1 (11717891_a_at) / RFU IL23R (11748794_a_at) / Fold change /veh IL23R (11748794_a_at) / RFU TNFAIP8L3 (11732012_x_at) / Fold change /veh TNFAIP8L3 (11732012_x_at) / RFU MBOAT4 (11741988_at) / Fold change /veh MBOAT4 (11741988_at) / RFU 11764193_at / Fold change /veh 11764193_at / RFU TMEM53 (11763286_at) / Fold change /veh TMEM53 (11763286_at) / RFU MAGEB2 (11727129_at) / Fold change /veh MAGEB2 (11727129_at) / RFU TMEM200A (11744735_a_at) / Fold change /veh TMEM200A (11744735_a_at) / RFU CCDC152 (11751479_a_at) / Fold change /veh CCDC152 (11751479_a_at) / RFU FAM211A (11726209_a_at) / Fold change /veh FAM211A (11726209_a_at) / RFU RGS16 (11746705_a_at) / Fold change /veh RGS16 (11746705_a_at) / RFU VCAN (11755009_s_at) / Fold change /veh VCAN (11755009_s_at) / RFU RHOB (11743442_s_at) / Fold change /veh RHOB (11743442_s_at) / RFU RGS16 (11720943_a_at) / Fold change /veh RGS16 (11720943_a_at) / RFU RGS16 (11720944_at) / Fold change /veh RGS16 (11720944_at) / RFU, VPS4B / Fold change vs veh, VPS4B / RFU, CREB1 / Fold change vs veh, CREB1 / RFU, DNAJC13 / Fold change vs veh, DNAJC13 / RFU, GNAQ / Fold change vs veh, GNAQ / RFU, CDK5R1 / Fold change vs veh, CDK5R1 / RFU, ZRANB3 / Fold change vs veh, ZRANB3 / RFU, CUL4A / Fold change vs veh, CUL4A / RFU, CCNY / Fold change vs veh, CCNY / RFU, UFL1 / Fold change vs veh, UFL1 / RFU, COG3 / Fold change vs veh, COG3 / RFU, DIAPH2 / Fold change vs veh, DIAPH2 / RFU, SKA2 / Fold change vs veh, SKA2 / RFU, AFF3 / Fold change vs veh, AFF3 / RFU, LMF1 / Fold change vs veh, LMF1 / RFU, IPO11 / Fold change vs veh, IPO11 / RFU, DFFB / Fold change vs veh, DFFB / RFU, FOXP1 / Fold change vs veh, FOXP1 / RFU, CARD8 / Fold change vs veh, CARD8 / RFU, STRN3 / Fold change vs veh, STRN3 / RFU, ADK / Fold change vs veh, ADK / RFU, RASSF2 / Fold change vs veh, RASSF2 / RFU, WIPF1 / Fold change vs veh, WIPF1 / RFU, LARP1B / Fold change vs veh, LARP1B / RFU, RASA1 / Fold change vs veh, RASA1 / RFU, RB1 / Fold change vs veh, RB1 / RFU, PPFIA1 / Fold change vs veh, PPFIA1 / RFU, MAT2A / Fold change vs veh, MAT2A / RFU, CCT5 / Fold change vs veh, CCT5 / RFU, WDR92 / Fold change vs veh, WDR92 / RFU, CUX1 / Fold change vs veh, CUX1 / RFU, TTC7A / Fold change vs veh, TTC7A / RFU, TMEM135 / Fold change vs veh, TMEM135 / RFU, DEPTOR / Fold change vs veh, DEPTOR / RFU, CPM / Fold change vs veh, CPM / RFU, DNAJB6 / Fold change vs veh, DNAJB6 / RFU, CACNA2D3 / Fold change vs veh, CACNA2D3 / RFU, DTX4 / Fold change vs veh, DTX4 / RFU, TFCP2 / Fold change vs veh, TFCP2 / RFU, GMCL1 /// GMCL1P1 / Fold change vs veh, GMCL1 /// GMCL1P1 / RFU, AEBP2 / Fold change vs veh, AEBP2 / RFU, SNHG1 /// SNORD22 /// SNORD25 /// SNORD26 /// SNORD27 /// SNORD28 /// SNORD29 /// SNORD31 / Fold change vs veh, SNHG1 /// SNORD22 /// SNORD25 /// SNORD26 /// SNORD27 /// SNORD28 /// SNORD29 /// SNORD31 / Fold change (Aza/veh), C12orf56 (ProbeSet 11735607_a_at) / Fold change (ACY-1035/veh), C12orf56 (ProbeSet 11735607_a_at) / Fold change (Aza/veh), FGFR1OP (ProbeSet 11751329_s_at) / Fold change (ACY-1035/veh), FGFR1OP (ProbeSet 11751329_s_at) / Fold change (Aza/veh), VPS36 (ProbeSet 11739960_a_at) / Fold change (ACY-1035/veh), VPS36 (ProbeSet 11739960_a_at) / RFU SYPL1 (11715823_x_at) / Fold change /veh SYPL1 (11715823_x_at) / RFU IGFBP7 (11715501_s_at) / Fold change /veh IGFBP7 (11715501_s_at) / RFU REEP3 (11722064_at) / Fold change /veh REEP3 (11722064_at) / RFU IGLL1 (11728026_x_at) / Fold change /veh IGLL1 (11728026_x_at): dose or concentration left out as unconfirmed
Conditions: ProbeSet 11749781_s_at; LIST B

Nc1ccc(-c2cccs2)cc1NC(=O)c1ccc2c(c1)cc(C1CC1)n2CCN1CCOCC1 [ACY-1035]
RFU, BCAT1: 11.38 RFU
